{
  "source": "patent US9408387B2",
  "about": "“Safening 6-amino-2-(substituted phenyl)-5-substituted-4-pyrimidinecarboxylate herbicide injury on cereal crops” (Dow AgroSciences LLC, priority 2009, dated 2016)",
  "format_in_all_cases": "in vivo",
  "key": {"CIRAR": {"tested_on": "CIRAR", "assay": "Postemergence herbicidal activity, greenhouse, visual injury: CIRAR", "conditions": "for CIRAR Ob (visual injury): 20-22 d", "procedure": "Evaluation of Postemergence Herbicidal Safening in Cereal Crops\nSeeds of the desired test plant species were planted in Sun Gro MetroMix® 306 planting mixture, which typically has a pH of 6.0 to 6.8 and an organic matter content of about 30 percent, in plastic pots with a surface area of 103.2 square centimeters (cm^2). When required to ensure good germination and healthy plants, a fungicide treatment and/or other chemical or physical treatment was applied. The plants were grown for 7-36 days (d) in a greenhouse with an approximate 14-hour (h) photoperiod which was maintained at about 18° C. during the day and 17° C. during the night. Nutrients and water were added on a regular basis and supplemental lighting was provided with overhead metal halide 1000-Watt lamps as necessary. The plants were employed for testing when they reached the second or third true leaf stage.\nTreatments consisted of the acids or esters of compounds 1-10 and cloquintocet-mexyl (CQC-M), fenchlorazole-ethyl, mefenpyr-diethyl alone and in combination. Weighed amounts of acid or methyl esters of the compounds of formula (I) were dissolved in a volume of 97:3 v/v acetone/dimethylsulfoxide (DMSO) to obtain concentrated solutions. […] The concentrated solutions of the test compound were diluted with the addition of an aqueous mixture containing acetone, water, isopropyl alcohol, DMSO, Agri-Dex crop oil concentrate, and Triton® X-77 surfactant in a 64.7:26.0:6.7:2.0:0.7:0.01 v/v ratio. Test compounds were diluted to the appropriate application rate with a dilution solution which was prepared by mixing the appropriate volume of 97:3 v/v acetone/DMSO and the appropriate volume of an aqueous mixture containing acetone, water, isopropyl alcohol, DMSO, Agri-Dex crop oil concentrate, and Triton® X-77 surfactant in a 64.7:26.0:6.7:2.0:0.7:0.01 v/v ratio. Compound requirements are based upon a 12 mL application volume at a rate of 187 liters per hectare (L/ha). The concentrated solutions of the safener were prepared following the same procedure. Weighed amounts of safener were dissolved in a volume of 97:3 v/v acetone/DMSO to obtain concentrated safener solutions.\nSpray solutions of the herbicide safener and test compound mixtures were prepared by adding the concentrated solutions to the appropriate amount of dilution solution to form 12 mL spray solution with active ingredients in combinations.\nFormulated compounds were applied to the plant material with an overhead Mandel track sprayer equipped with 8002E nozzles calibrated to deliver 187 L/ha over an application area of 0.503 square meters (m^2) at a spray height of 18 inches (43 centimeters (cm)) above average plant canopy. Control plants were sprayed in the same manner with the solvent blank.\nThe treated plants and control plants were placed in a greenhouse as described above and watered by sub-irrigation to prevent wash-off of the test compounds. After 20-22 d, the condition of the test plants as compared with that of the control plants was determined visually and scored on a scale of 0 to 100 percent where 0 corresponds to no injury and 100 corresponds to complete kill.\nColby's equation was used to determine the herbicidal effects expected from the mixtures (Colby, S. R. Calculation of the synergistic and antagonistic response of herbicide combinations. Weeds 1967, 15, 20-22.).\nThe following equation was used to calculate the expected activity of mixtures containing two active ingredients, A and B: Expected=A+B−(A×B/100)\nA=observed efficacy of active ingredient A at the same concentration as used in the mixture.\nB=observed efficacy of active ingredient B at the same concentration as used in the mixture."}, "[1]": {"tested_on": "kochia (Kochia scoparia L; KCHSC)", "assay": "Postemergence herbicidal activity, greenhouse, visual injury: kochia", "conditions": "for KCHSC Ob (visual injury): 20-22 d", "outline": "(§1)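 Plants are grown in a greenhouse for 7-36 d to the second or third true leaf stage. Compounds, with or without safener, are sprayed overhead at 187 L/ha. Plants are then sub-irrigated, and injury is scored visually after 20-22 d.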"}, "[2]": {"tested_on": "corn poppy (Papaver rhoeas L; PAPRH)", "assay": "Postemergence herbicidal activity, greenhouse, visual injury: corn poppy", "conditions": "for PAPRH Ob (visual injury): 20-22 d", "outline": "as §1"}, "[3]": {"tested_on": "durum wheat (Triticum durum L; TRZDU)", "assay": "Postemergence herbicidal safening in cereal crops, greenhouse, visual injury: durum wheat", "conditions": "20-22 d", "outline": "as §1"}, "[4]": {"tested_on": "wild pansy (Viola tricolor; VIOTR)", "assay": "Postemergence herbicidal activity, greenhouse, visual injury: VIOTR"}, "[5]": {"conditions": "Compound 10 0, CQC-M 8.75 g ae/ha"}, "[6]": {"conditions": "Compound 10 0, CQC-M 17.5 g ae/ha"}, "[7]": {"conditions": "Compound 10 0, CQC-M 35 g ae/ha"}, "[8]": {"conditions": "Compound 10 0, CQC-M 70 g ae/ha"}, "[9]": {"conditions": "Compound 10 0, CQC-M 140 g ae/ha"}},
  "data": [
    {"smiles": "CCCCCC(C)OC(=O)COc1ccc(Cl)c2cccnc12", "note": "(stereo not shown) [CQC-M, cloquintocet-mexyl, reference compound]", "values": [
      {"measurement": "CIRAR Ob (Observed values, % control)", "setting": "CIRAR; [5]", "result": 0, "unit": "%"},
      {"measurement": "CIRAR Ob (Observed values, % control)", "setting": "CIRAR; [6]", "result": 0, "unit": "%"},
      {"measurement": "CIRAR Ob (Observed values, % control)", "setting": "CIRAR; [7]", "result": 0, "unit": "%"},
      {"measurement": "CIRAR Ob (Observed values, % control)", "setting": "CIRAR; [8]", "result": 0, "unit": "%"},
      {"measurement": "CIRAR Ob (Observed values, % control)", "setting": "CIRAR; [9]", "result": 0, "unit": "%"},
      {"measurement": "CIRAR Ob (visual injury)", "setting": "CIRAR; safener alone 70 g/ha", "result": 0, "unit": "%"},
      {"measurement": "CIRAR Ob (visual injury)", "setting": "CIRAR; safener alone 140 g/ha", "result": 0, "unit": "%"},
      {"measurement": "KCHSC Ob (Observed values, % control)", "setting": "[1]; [5]", "result": 0, "unit": "%"},
      {"measurement": "KCHSC Ob (Observed values, % control)", "setting": "[1]; [6]", "result": 0, "unit": "%"},
      {"measurement": "KCHSC Ob (Observed values, % control)", "setting": "[1]; [7]", "result": 0, "unit": "%"},
      {"measurement": "KCHSC Ob (Observed values, % control)", "setting": "[1]; [8]", "result": 0, "unit": "%"},
      {"measurement": "KCHSC Ob (Observed values, % control)", "setting": "[1]; [9]", "result": 0, "unit": "%"},
      {"measurement": "KCHSC Ob (visual injury)", "setting": "[1]; safener alone 8.75 g/ha", "result": 0, "unit": "%"},
      {"measurement": "KCHSC Ob (visual injury)", "setting": "[1]; safener alone 70 g/ha", "result": 0, "unit": "%"},
      {"measurement": "KCHSC Ob (visual injury)", "setting": "[1]; safener alone 140 g/ha", "result": 0, "unit": "%"},
      {"measurement": "PAPRH Ob (Observed values, % control)", "setting": "[2]; [5]", "result": 0, "unit": "%"},
      {"measurement": "PAPRH Ob (Observed values, % control)", "setting": "[2]; [6]", "result": 0, "unit": "%"},
      {"measurement": "PAPRH Ob (Observed values, % control)", "setting": "[2]; [7]", "result": 0, "unit": "%"},
      {"measurement": "PAPRH Ob (Observed values, % control)", "setting": "[2]; [8]", "result": 0, "unit": "%"},
      {"measurement": "PAPRH Ob (Observed values, % control)", "setting": "[2]; [9]", "result": 0, "unit": "%"},
      {"measurement": "PAPRH Ob (visual injury)", "setting": "[2]; safener alone 8.75 g/ha", "result": 0, "unit": "%"},
      {"measurement": "PAPRH Ob (visual injury)", "setting": "[2]; safener alone 70 g/ha", "result": 0, "unit": "%"},
      {"measurement": "PAPRH Ob (visual injury)", "setting": "[2]; safener alone 140 g/ha", "result": 0, "unit": "%"},
      {"measurement": "TRZDU Ob (visual injury)", "setting": "[3]; safener alone 0.547 g/ha", "result": 0, "unit": "%"},
      {"measurement": "TRZDU Ob (visual injury)", "setting": "[3]; safener alone 2.1875 g/ha", "result": 0, "unit": "%"},
      {"measurement": "TRZDU Ob (visual injury)", "setting": "[3]; safener alone 8.75 g/ha", "result": 0, "unit": "%"},
      {"measurement": "TRZDU Ob (visual injury)", "setting": "[3]; safener alone 35 g/ha", "result": 0, "unit": "%"},
      {"measurement": "TRZDU Ob (visual injury)", "setting": "[3]; safener alone 70 g/ha", "result": 15, "unit": "%"},
      {"measurement": "TRZDU Ob (visual injury)", "setting": "[3]; safener alone 140 g/ha", "result": 20, "unit": "%"},
      {"measurement": "VIOTR Ob (Observed values, % control)", "setting": "[4]; [5]", "result": 0, "unit": "%"},
      {"measurement": "VIOTR Ob (Observed values, % control)", "setting": "[4]; [6]", "result": 0, "unit": "%"},
      {"measurement": "VIOTR Ob (Observed values, % control)", "setting": "[4]; [7]", "result": 0, "unit": "%"},
      {"measurement": "VIOTR Ob (Observed values, % control)", "setting": "[4]; [8]", "result": 0, "unit": "%"},
      {"measurement": "VIOTR Ob (Observed values, % control)", "setting": "[4]; [9]", "result": 0, "unit": "%"}
    ]}
  ]
}
